In one data set the target is T1, human ACAT1 (Homo sapiens, UniProt P35610).
T1 sequence (P35610 1-550): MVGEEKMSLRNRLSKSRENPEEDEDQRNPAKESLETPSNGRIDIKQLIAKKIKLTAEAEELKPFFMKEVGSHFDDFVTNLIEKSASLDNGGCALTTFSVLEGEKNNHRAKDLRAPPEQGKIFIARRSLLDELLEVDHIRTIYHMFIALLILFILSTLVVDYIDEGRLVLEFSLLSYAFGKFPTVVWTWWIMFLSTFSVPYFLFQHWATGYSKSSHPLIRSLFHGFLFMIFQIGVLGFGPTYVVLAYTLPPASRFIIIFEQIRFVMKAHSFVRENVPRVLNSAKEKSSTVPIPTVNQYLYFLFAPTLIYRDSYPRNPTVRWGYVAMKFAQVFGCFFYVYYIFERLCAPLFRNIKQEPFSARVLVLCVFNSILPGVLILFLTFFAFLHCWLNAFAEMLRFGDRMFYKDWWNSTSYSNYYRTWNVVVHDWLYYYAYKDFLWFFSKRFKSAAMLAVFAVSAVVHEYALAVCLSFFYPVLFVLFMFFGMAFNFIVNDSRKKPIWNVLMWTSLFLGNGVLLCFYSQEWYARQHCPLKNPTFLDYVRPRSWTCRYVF
As to the kind of experiment: Cholesteryl [3H]-oleate formation in CHO cells stably expressing human ACAT1.

The target in another data set is T2, human ACAT2 (Homo sapiens, UniProt O75908).
T2 sequence (O75908 1-522): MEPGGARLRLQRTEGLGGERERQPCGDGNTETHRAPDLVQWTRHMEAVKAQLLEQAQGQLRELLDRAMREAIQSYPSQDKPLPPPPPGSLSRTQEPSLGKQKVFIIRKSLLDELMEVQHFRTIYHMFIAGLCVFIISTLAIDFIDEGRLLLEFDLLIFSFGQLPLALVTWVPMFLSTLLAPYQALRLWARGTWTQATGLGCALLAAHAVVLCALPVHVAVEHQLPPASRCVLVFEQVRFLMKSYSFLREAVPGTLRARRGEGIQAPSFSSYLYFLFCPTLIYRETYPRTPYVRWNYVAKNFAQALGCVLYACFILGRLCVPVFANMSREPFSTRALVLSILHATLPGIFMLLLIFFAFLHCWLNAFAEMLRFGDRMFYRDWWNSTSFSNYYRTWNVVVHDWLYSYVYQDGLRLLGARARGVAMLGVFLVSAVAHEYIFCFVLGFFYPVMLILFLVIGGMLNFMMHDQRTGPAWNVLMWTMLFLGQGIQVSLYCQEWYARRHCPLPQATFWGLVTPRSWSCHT
Kind of data set: Cholesteryl [3H]-oleate formation in CHO cells stably expressing human ACAT2.

The subject of data set [1] is ACAT activity in the brain. As to the kind of experiment: ACAT inhibition in mouse tissues after single IV of stealth nanoparticles. The format is in vivo, mice. As for the experimental part: Shown is the efficacy of F12511 vs. F24 encapsulated in nanoparticle and IV delivered to mice. Four hours after IV, various tissues were isolated to monitor ACAT inhibition measurement. Mice were perfused before brains were isolated. N=2-3 WT mice/group. Statistical analysis, 2-way ANOVA. **P<0.01; ***P<0.001.
Nanoparticle Formation. Nanoparticles were prepared according to a general method (Gülçür, et al. (2013) Drug Deliv. Transl. Res. 3(6):562-574; Jhaveri & Torchilin (2014) Front. Pharmacol. 5:77) with modifications. Using a clean glass tube (9 mL capacity), 60 mg of DSPE-PEG2000 (Laysan Bio, Inc (mPEG-DSPE, MW 2,000)) was dissolved in 500 μL of ethanol (EtOH) for a working concentration of 60 mM. […]
Nanoparticle Analysis. […] The content of compound was determined by extrapolation from a standard curve of a concentration gradient of the respective compound produced in the same TLC plate. The plate was stained with iodine and quantified using ImageJ. The TLC/iodine stain method detected compound, and DSPE-PEG2000/PC separately, thus allowing for encapsulation efficiency determination.
Delivery of F24 in Mice via Nanoparticles. […] Four hours after IV delivery, different tissues were isolated and the percent of ACAT inhibition was assessed.

Procedure for human ACAT1: (§1) Cells were placed in 10% serum for two days at 37° C. and further incubated with various concentrations of F24 as a stock solution in DMSO for 2 hours. Subsequently, a complex of [3H]-oleic acid and BSA (serving as precursor of oleyl CoA as substrate of ACAT) was fed to the cells for 2 hours. Cells were extensively washed and cellular lipids were extracted with organic solvents. Radioactivity of cholesteryl [3H]-oleate was separated by thin-layer chromatography and determined by scintillation counting.
Procedure for human ACAT2: as §1

As for `CCCCCCCCCCCCSC(C(=O)Nc1c(SC)cc(C)nc1SC)c1ccccc1` (stereo not shown) [F24], the EC50 at human ACAT1 is 6 nM; on human ACAT2, 11 nM. The “fold more potent than F12511 in inhibiting ACAT1” value on human ACAT1 (ratio of EC50 values, 6 nM vs. 39 nM) is “seven-fold”. For the same compound, at human ACAT2 (ratio of EC50 values, 11 nM vs. 55 nM), the “fold more potent than F12511 in inhibiting human ACAT2” value was “five-fold”. Moreover, the ACAT inhibition in data set [1] (adult C57BL/6 mice, single IV of nanoparticle F24 at low dose 0.9 mM, four hours after IV, brain) turned out to be 70%. Further, the brain permeability result in data set [1] (mice, delivered IV via stealth nanoparticle) is reported as “brain-permeable”.
Regarding `CCCCCCCCCCCCS[C@H](C(=O)Nc1cc(C)c(O)c(C)c1C)c1ccccc1` [F12511, reference compound], the 50% effective concentration (EC50) at human ACAT2 stood at 55 nM.

Broadly, the EC50 is the concentration that produces a half-maximal response. Low values mean greater potency, high ones weaker potency.

The values above are taken from US20240325359A1, “ACAT1 INHIBITOR AND METHOD OF USE IN THE TREATMENT OF DISEASE” (Trustees of Dartmouth College, priority 2023, published 2024).
